{
  "source": "patent US20040030161A1",
  "about": "“Recovery and purification of anhydro sugar alcohols from a vapor stream” (priority 2002, published 2004)",
  "format": "physicochemical",
  "description": "The basis for this process is illustrated for isosorbide in FIG. 1, where the upper curve represents the solubility of isosorbide in water (as percent by weight isosorbide) on the x-axis vs. temperature on the y-axis. The lower curve represents the composition of the condensate (as percent by weight isosorbide) when the condensation is conducted at a pressure of about 14 mm Hg. […] The condensate is a highly concentrated solution of isosorbide and contains only a small fraction as water. Thus, by conducting the condensation under these conditions, most of the isosorbide from, for example, a 20-30 weight percent isosorbide aqueous vapor stream is recovered, leaving most of the water in the vapor phase. The amount of isosorbide left in the vapor is negligibly small because of the very low vapor pressure of isosorbide, on the order of only about 0.001 mm Hg, at a condensation temperature of about 45° C.",
  "data": [
    {"smiles": "O[C@@H]1CO[C@H]2[C@@H]1OC[C@@H]2O", "note": "[isosorbide, 1,4:3,6-dianhydrosorbitol]", "values": [
      {"measurement": "solubility of isosorbide in water (percent by weight isosorbide)", "value": "~100", "unit": "%"}
    ]}
  ]
}
